Experiments:
CYP2C19 = biological target: T1, CYP2C19 (Homo sapiens, UniProt P33261); test: CYP2C19 inhibition in Saccharosomes; type: biochemical; settings: Saccharosomes containing CYP2C19
T1 construct: host or cells: yeast microsomes (Saccharosomes)

CYP2A6 = biological target: T2, CYP2A6 (Homo sapiens, UniProt P11509); test: CYP2A6 inhibition in Saccharosomes; type: biochemical
T2 construct: host or cells: yeast microsomes (Saccharosomes)
T2 sequence (P11509 1-494): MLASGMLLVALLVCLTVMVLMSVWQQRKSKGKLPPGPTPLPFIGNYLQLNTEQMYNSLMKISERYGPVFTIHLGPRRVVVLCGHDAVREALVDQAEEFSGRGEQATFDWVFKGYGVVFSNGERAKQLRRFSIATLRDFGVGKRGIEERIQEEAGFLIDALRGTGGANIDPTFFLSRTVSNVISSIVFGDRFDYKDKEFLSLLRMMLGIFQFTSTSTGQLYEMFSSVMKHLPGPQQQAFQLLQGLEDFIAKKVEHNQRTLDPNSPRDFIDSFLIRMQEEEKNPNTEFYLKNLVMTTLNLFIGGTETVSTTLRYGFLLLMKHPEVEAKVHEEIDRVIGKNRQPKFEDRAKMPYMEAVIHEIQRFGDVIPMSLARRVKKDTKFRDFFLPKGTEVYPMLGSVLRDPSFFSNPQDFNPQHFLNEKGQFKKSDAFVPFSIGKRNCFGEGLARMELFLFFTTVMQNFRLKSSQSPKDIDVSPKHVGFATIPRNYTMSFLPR
Experimental: (§1) Example 25. IC50 determination for best compound against CYP1A1, CYP1B1 and other CYPs in Saccharosomes. Compounds were serially diluted to six different concentrations with 10% DMSO in a Sero-Well white microplate. The experiment was performed in a similar way as described above in examples 23 and 24.

CYP1A2 = biological target: T3, CYP1A2 (Homo sapiens, UniProt P05177); test: CYP1A2 inhibition in Saccharosomes; type: biochemical
T3 construct: host or cells: yeast microsomes (Saccharosomes)
T3 sequence (P05177 1-516): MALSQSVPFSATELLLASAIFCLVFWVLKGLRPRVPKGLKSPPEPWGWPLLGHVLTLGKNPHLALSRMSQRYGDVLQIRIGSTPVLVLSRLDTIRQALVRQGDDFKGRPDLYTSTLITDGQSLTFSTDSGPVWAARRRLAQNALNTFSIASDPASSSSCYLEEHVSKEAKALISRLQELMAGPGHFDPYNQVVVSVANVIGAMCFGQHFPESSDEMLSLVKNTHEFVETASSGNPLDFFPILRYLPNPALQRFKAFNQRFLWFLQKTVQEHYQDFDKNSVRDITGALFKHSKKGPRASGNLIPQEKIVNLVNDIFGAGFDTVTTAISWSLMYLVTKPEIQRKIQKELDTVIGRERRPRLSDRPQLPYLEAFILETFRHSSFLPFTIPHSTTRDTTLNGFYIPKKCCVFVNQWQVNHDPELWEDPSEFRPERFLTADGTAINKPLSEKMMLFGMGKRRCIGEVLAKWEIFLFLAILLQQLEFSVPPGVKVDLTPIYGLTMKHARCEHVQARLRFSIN
Experimental: as §1

CYP2E1 = biological target: T4, CYP2E1 (Homo sapiens, UniProt P05181); test: CYP2E1 inhibition in Saccharosomes; type: biochemical
T4 construct: host or cells: yeast microsomes (Saccharosomes)
Experimental: as §1

CYP2B6 = biological target: T5, CYP2B6 (Homo sapiens, UniProt P20813); test: CYP2B6 inhibition in Saccharosomes; type: biochemical; settings: Saccharosomes containing CYP2B6
T5 construct: host or cells: yeast microsomes (Saccharosomes)
T5 sequence (P20813 1-491): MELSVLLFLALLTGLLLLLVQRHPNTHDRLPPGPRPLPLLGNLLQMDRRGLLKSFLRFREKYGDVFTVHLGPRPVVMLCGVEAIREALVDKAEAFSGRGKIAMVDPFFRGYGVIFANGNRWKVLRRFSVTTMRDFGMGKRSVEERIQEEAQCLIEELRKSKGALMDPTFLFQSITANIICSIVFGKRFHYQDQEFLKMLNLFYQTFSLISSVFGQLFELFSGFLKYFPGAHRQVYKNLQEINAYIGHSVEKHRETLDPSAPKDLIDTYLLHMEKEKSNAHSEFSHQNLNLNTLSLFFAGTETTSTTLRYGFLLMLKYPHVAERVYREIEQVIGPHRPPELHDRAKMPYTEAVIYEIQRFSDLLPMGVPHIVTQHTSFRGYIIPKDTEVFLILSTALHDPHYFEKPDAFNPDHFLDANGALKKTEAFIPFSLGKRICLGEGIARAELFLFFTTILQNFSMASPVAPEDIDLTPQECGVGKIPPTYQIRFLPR

CYP3A4 = biological target: T6, CYP3A4 (Homo sapiens, UniProt P08684); test: CYP3A4 inhibition in Saccharosomes; type: biochemical
T6 construct: host or cells: yeast microsomes (Saccharosomes)
Experimental: as §1

CYP2C9 = biological target: T7, CYP2C9 (Homo sapiens, UniProt P11712); test: CYP2C9 inhibition in Saccharosomes; type: biochemical; settings: Saccharosomes containing CYP2C9
T7 construct: host or cells: yeast microsomes (Saccharosomes)

CYP2C8 = biological target: T8, CYP2C8 (Homo sapiens, UniProt P10632); test: CYP2C8 inhibition in Saccharosomes; type: biochemical; settings: Saccharosomes containing CYP2C8
T8 construct: host or cells: yeast microsomes (Saccharosomes)
T8 sequence (P10632 1-490): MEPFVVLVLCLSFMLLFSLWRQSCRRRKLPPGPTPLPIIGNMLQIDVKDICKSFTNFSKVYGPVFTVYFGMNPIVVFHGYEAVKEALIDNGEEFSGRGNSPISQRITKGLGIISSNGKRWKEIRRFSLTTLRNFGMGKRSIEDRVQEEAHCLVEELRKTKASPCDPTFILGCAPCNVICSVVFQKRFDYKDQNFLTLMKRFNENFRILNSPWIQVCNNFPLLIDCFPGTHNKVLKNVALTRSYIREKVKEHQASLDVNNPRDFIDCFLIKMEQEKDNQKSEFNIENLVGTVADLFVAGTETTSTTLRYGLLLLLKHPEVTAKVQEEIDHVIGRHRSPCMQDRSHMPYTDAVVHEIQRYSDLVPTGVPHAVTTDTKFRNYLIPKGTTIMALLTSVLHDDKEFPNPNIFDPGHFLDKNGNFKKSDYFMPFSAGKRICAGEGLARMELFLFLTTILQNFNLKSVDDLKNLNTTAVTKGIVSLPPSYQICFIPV

T4 sequence (P05181 whole entry): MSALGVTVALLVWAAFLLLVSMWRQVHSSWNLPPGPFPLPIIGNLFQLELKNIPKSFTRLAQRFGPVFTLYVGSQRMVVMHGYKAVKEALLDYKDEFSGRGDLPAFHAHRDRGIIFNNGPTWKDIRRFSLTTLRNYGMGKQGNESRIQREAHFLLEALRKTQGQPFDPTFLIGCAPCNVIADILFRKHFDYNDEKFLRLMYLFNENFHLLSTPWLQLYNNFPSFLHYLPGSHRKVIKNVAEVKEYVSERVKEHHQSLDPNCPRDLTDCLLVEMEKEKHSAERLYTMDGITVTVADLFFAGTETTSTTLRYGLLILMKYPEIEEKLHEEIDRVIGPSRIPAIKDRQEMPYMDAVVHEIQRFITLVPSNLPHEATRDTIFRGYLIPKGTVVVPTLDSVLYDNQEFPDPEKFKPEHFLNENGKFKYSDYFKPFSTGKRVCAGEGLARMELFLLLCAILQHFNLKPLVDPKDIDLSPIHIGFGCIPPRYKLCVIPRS
T7 sequence (P11712 whole entry): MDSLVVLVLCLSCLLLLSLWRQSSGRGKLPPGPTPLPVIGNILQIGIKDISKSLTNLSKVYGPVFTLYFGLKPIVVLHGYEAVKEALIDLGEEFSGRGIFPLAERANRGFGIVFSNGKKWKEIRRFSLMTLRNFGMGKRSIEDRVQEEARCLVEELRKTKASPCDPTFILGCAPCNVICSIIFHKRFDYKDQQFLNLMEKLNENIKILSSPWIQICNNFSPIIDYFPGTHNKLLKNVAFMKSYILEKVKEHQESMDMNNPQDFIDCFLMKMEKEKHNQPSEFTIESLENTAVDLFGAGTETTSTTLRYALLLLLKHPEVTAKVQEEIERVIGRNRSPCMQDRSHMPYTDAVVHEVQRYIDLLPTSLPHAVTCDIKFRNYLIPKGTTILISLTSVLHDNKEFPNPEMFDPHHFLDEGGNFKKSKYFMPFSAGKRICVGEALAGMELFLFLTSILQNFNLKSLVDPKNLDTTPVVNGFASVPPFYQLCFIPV
T1 sequence (P33261 whole entry): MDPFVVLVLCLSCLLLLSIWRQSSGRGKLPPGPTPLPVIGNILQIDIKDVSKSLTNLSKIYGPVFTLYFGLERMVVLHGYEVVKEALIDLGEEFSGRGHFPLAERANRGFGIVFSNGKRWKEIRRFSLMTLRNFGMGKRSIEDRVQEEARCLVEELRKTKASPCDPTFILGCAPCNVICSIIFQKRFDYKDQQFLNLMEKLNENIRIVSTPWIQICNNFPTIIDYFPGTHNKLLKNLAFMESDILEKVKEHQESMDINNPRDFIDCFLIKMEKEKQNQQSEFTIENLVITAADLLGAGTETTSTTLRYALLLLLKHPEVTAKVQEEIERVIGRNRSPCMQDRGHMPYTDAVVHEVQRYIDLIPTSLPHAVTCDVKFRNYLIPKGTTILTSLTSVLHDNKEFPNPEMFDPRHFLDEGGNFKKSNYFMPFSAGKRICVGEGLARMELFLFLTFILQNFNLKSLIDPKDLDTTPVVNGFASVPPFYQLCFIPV
T6 sequence (P08684 whole entry): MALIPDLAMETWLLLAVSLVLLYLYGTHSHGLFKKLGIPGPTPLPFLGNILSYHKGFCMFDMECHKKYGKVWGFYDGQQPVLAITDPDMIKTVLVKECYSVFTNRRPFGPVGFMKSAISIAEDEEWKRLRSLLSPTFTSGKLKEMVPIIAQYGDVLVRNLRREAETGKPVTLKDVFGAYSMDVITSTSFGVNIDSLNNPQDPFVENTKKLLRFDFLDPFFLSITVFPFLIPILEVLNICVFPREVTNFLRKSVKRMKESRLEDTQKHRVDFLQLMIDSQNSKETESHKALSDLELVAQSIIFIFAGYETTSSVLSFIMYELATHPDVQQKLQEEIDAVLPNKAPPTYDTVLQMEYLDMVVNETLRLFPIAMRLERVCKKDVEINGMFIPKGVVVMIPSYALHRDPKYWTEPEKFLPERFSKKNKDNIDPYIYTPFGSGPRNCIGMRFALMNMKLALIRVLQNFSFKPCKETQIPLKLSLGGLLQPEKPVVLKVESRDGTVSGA

inhibition at 20 µM (CYP2C19): 7%
Inhibition of CYP2A6 at 20 μM (CYP2A6): No Inhibition
IC50 (CYP1A2): 0.166 µM
Inhibition of CYP2E1 at 10 μM (CYP2E1): No Inhibition
melting point: 112 to 114 °C
inhibition at 20 µM (CYP2B6): 15%
IC50 (CYP3A4): 3 µM
inhibition at 20 µM (CYP2C9): 62%
inhibition at 20 µM (CYP2C8): 24%
SMILES: COc1c(C(=O)/C=C/c2cccnc2)c(O)c(OC)c2occc12 [Compound 8, 3-(4,7-dimethoxy-6-hydroxybenzofuran-5-yl)-1-(pyridin-3-yl)-3-oxopropene]

— patent publication US20210284618A1, “FURANOCHALCONES AS INHIBITORS OF CYP1A1, CYP1A2 AND CYP1B1 FOR CANCER CHEMOPREVENTION” (Council of Scientific & Industrial Research, priority 2016, published 2021)
